# Data from patent US20260200849A1, “CATIONIC LIPIDS AND PREPARATION METHOD THEREOF” (RiboX Therapeutics HK Limited, priority 2024, published 2026).
# Values joined by “and” are separate entries in the source; they are usually repeats but may differ in a detail not shown here. Identical values can stand only once.
# Assays:
# injection site skin = test: In vivo tolerability after intradermal injection: H&E staining of injection site skin; set-up: species or system C57BL/6J mice; key to Infiltration, mononuclear cells, dermis/subcutaneous, focal, Grade / Edema, subcutaneous, focal, Grade / Erosion, focal, Grade / Skin, Grade: 1==minimal; 2=mild; 3=moderate; 4=marked; 5=severe; N=Normal; NA=Not applicable; —=No data; conditions: intradermal 0.15 mg/kg, 72 h, Formulation 001, RNA 331; for Edema, subcutaneous, focal, Grade / Erosion, focal, Grade / Infiltration, mononuclear cells, dermis/subcutaneous, focal, Grade: per animal; for Total score: sum of lesion grades of the group (N=3)
# Method: 7-8 week old, female C57BL/6J mice (N=3) were injected with 0.15 mg*kg−1 of RNA-LNIPs encoding for firefly-luciferase by intradermal injection. At 72-hours post injection, injection site skin from each animal was collected in 10% formalin, for H&E staining. PBS group (N=2) as control. (Note: 1==minimal, 2=mild, 3=moderate, 4=marked, 5=severe; N=Normal; NA=Not applicable; —=No data)
# Balb/c mice = test: In vivo expression by IV, 0.05 mg/kg luciferase RNA-LNPs, IVIS luminescence; conditions: Formulation No. 010, RNA No. 331, female Balb/c mice, 0.05 mg*kg−1 intravenous; for Whole body at 24 h (p/s) (Mean): 24 hours post injection; for Whole body at 72 h (p/s) (Mean): 72 hours post injection
# Summary of the method: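 Female Balb/c mice (7-8 weeks, N=3) received 0.05 mg*kg−1 firefly-luciferase RNA-LNPs IV. Luciferin (15 mg/ml) was given IP at 24 and 72 h post-dose for IVIS whole-body luminescence. A second run imaged whole body, liver and spleen at 24 h only.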
# hEPO = test: In vivo expression by IM: serum hEPO concentration by ELISA; conditions: IM 0.075 mg/kg, male C57BL/6J mice N=3, Formulation 001, RNA 019
# Method: Circular RNA payloads were suspended in 25 mM Acetate Buffer (pH 4.5). To form LNPs, three volumes of human erythropoietin (hEPO) encoding cirRNA (SEQ ID NO:2), were mixed with one volume of lipids in ethanol solution by microfluidic mixing with the INano™ L+ (Micro& Nano) at a flow rate of 12 ml/min. The molar ratio of ionizable lipid to ribonucleotide was 6. After encapsulation, the particles were dialyzed twice against PBS. The LNP formulation was concentrated to targeted RNA concentration by Amicon® Ultra Centrifugal Filter (100 kDa MWCO) and filtered by a 0.65/0.22 um sterile filter.
# 6-8 week old, male C57BL/6J mice (N=3) were injected with 0.075 mg*kg−1 of RNA-LNPs encoding for hEPO by intramuscular injection. At 2-/6-/24-/48-/72 h-hours post injection, about 80 μL blood will be harvested and immediately added to the procoagulant containing tube. Stand for 30 min at room temperature and then centrifuged at 2500 g×10 min to obtain serum. About 30 μL serum samples will be aliquoted for hEPO concentration detection by ELISA kit (STEMCELL Technologies).
# Hep G2 cells [1] = test: In vitro toxicity: Hep G2 cell viability by CellTiter-Glo; assay type: cell-based; conditions: 72 hours post transfection, cell only = 100%
# Method: 2E5 Hep G2 cells were transfected with 1 μg/mL RNA-LNPs. At 72 hours post transfection, cell viability (2-well repeat) was determined with the CellTiter-Glo® reagent kit, according to the kit protocol, measured by a luminometer. Cell only as control (100%).
# The cell viability was calculated according to the following formula: […]
# Hep G2 cells [2] = test: In vitro expression: luciferase activity in Hep G2 cells transfected with RNA-LNPs; assay type: cell-based; conditions: 100 ng/mL RNA-LNPs, 72 hours post transfection
# Method: 2E5 Hep G2 cells were transfected with 100 ng/mL of RNA-LNPs encoding for firefly-luciferase. At 72 hours post transfection, the cells were washed and lysed. The luciferase expression (2-well repeat) was determined in the cell lysates with the luciferase assay reagent kit (Promega), according to the kit protocol, luciferase activity was measured by a luminometer.
# C57BL/6J mice = test: In vivo expression by ID, whole-body/injection site skin/lymph node luminescence; conditions: intradermal 0.15 mg/kg, 72 h post injection, female C57BL/6J mice N=3, Formulation 001, RNA 331
# Method: 7-8 week old, female C57BL/6J mice (N=3) were injected with 0.15 mg*kg−1 of RNA-LNPs encoding for firefly-luciferase by intradermal injection. At 72-hours post injection, animals were intraperitoneally injected with 15 mg/mi of Luciferin substrate and whole-body/injection site skin/lymph node luminescence were determined by a bioluminescent in vivo imaging system (IVIS).
# [3] = RNA encapsulation efficacy (EE %) by Quant-IT Ribogreen kit; assay type: physicochemical; conditions: LNP
# Method: (§1) The LNP size and polydispersity index (PDI), determined by dynamic light scattering (DLS), and zeta potential were measured by a Zetasizer machine (Malvern). RNA concentration and encapsulation efficacy (EE %) were analyzed by the Quant-IT Ribogreen kit by calculating the percentage encapsulation at 100%—(RNA-LNPs/RNA-LNPs with Triton X-100).
# [4] = LNP size and polydispersity index (PDI) by dynamic light scattering (Zetasizer); assay type: physicochemical; conditions: for Size (nm): Formulation No. 010 (Ionizable lipid:DSPC:cholesterol:DSPE-PEG2000 = 38:30:30:2, N/P 6), RNA No. 331
# Method: as §1
# [5] = 1 μg/mL RNA-LNPs, Formulation 001, RNA 331
# [6] = Formulation No. 010, RNA No. 331, 1 μg/mL RNA-LNPs
# [7] = Formulation No. 010, RNA No. 331 (firefly-luciferase)
# [8] = Formulation No. 001, RNA No. 019 (hEPO)
# [9] = Formulation No. 001, RNA No. 331
# [10] = Formulation No. 010, RNA No. 331
"EE (%) [3, 9]","EE (%) [3, 10]","PDI [4, 9]","Size [4, 9]",Size (nm) [4],"PDI [4, 10]",SMILES,"Edema, subcutaneous, focal, Grade (injection site skin)","Erosion, focal, Grade (injection site skin)","Infiltration, mononuclear cells, dermis/subcutaneous, focal, Grade (injection site skin)",Total score (injection site skin),Whole body at 24 h (p/s) (Mean) (Balb/c mice),Whole body at 72 h (p/s) (Mean) (Balb/c mice),hEPO conc. (ng/mL) at 2 h (hEPO),In vitro cell viability (%) (Mean) (Hep G2 cells [1]; [5]),In vitro cell viability (%) (Mean) (Hep G2 cells [1]; [6]),"In vitro Expression (Mean) (Hep G2 cells [2]; Formulation 001, RNA 331)",In vitro Expression (Mean) (Hep G2 cells [2]; [7]),Injection site Skin (p/s) (C57BL/6J mice),Lymph node (p/s) (C57BL/6J mice),Whole body (p/s) (C57BL/6J mice),other results
97.94%,97.13%,0.08,76.34 nm,64.73 nm,0.16,CCCCC/C=C\C/C=C\CCCCCCCC(=O)N[C@@H](COC(=O)NCCN1CCCCCC1)C(=O)OCCCCCCCC(=O)OC(CCCCCCCC)CCCCCCCC [Lipid 602],1 (2×) and 2,—,1,7,2.66E+08 p/s,1.24E+08 p/s,1.02 ng/mL,82.68%,84.17%,5.82E+05,6.30E+05,3.02E+07 p/s,3.01E+06 p/s,1.40E+08 p/s,"hEPO conc. (ng/mL) at 6 h (hEPO): 5.02 ng/mL; hEPO conc. (ng/mL) at 24 h (hEPO): 7.65 ng/mL; hEPO conc. (ng/mL) at 48 h (hEPO): 2.44 ng/mL; hEPO conc. (ng/mL) at 72 h (hEPO): 0.76 ng/mL; EE (%) [3, 8]: 95.79%; PDI [4, 8]: 0.04; Size [4, 8]: 67.47 nm"
94.50%,94.88%,0.15,72.66 nm,67.81 nm,0.13,CCCCC/C=C\C/C=C\CCCCCCCC(=O)NC(COC(=O)NCCN1CCCCCC1)C(=O)OCCCCCCCC(=O)OC(CCCCCCCC)CCCCCCCC (stereo not shown) [Lipid 550],1,1 and — (2×),1,7,2.36E+08 p/s,4.96E+07 p/s,1.56 ng/mL,67.09%,87.47%,1.89E+05,5.74E+05,1.33E+07 p/s,2.06E+06 p/s,3.09E+07 p/s,"hEPO conc. (ng/mL) at 6 h (hEPO): 6.19 ng/mL; hEPO conc. (ng/mL) at 24 h (hEPO): 9.69 ng/mL; hEPO conc. (ng/mL) at 48 h (hEPO): 2.38 ng/mL; hEPO conc. (ng/mL) at 72 h (hEPO): 0.67 ng/mL; EE (%) [3, 8]: 92.20%; PDI [4, 8]: 0.04; Size [4, 8]: 66.58 nm"
95.30%,95.98%,0.09,80.16 nm,62.33 nm,0.08,CCCCC/C=C\C/C=C\CCCCCCCC(=O)N[C@@H](COC(=O)NCCN1CCCCC1)C(=O)OCCCCCCCC(=O)OC(CCCCCCCC)CCCCCCCC [Lipid 601],1,—,1,6,3.82E+08 p/s,8.02E+07 p/s,1.12 ng/mL,81.18%,98.14%,9.94E+05,6.24E+05,9.69E+06 p/s,1.89E+06 p/s,5.92E+07 p/s,"hEPO conc. (ng/mL) at 6 h (hEPO): 7.35 ng/mL; hEPO conc. (ng/mL) at 24 h (hEPO): 12.74 ng/mL; hEPO conc. (ng/mL) at 48 h (hEPO): 3.29 ng/mL; hEPO conc. (ng/mL) at 72 h (hEPO): 1.06 ng/mL; EE (%) [3, 8]: 90.47%; PDI [4, 8]: 0.04; Size [4, 8]: 73.40 nm"
95.62%,95.94%,0.08,71.29 nm,57.90 nm,0.10,CCCCC/C=C\C/C=C\CCCCCCCC(=O)NC(COC(=O)NCCN1CCCCCC1)C(=O)OCCCCCC(=O)OCC(CCCCCCCC)CCCCCCCCCC (stereo not shown) [Lipid 729],1 (2×) and —,—,1,5,1.86E+08 p/s,4.99E+07 p/s,,65.07%,80.55%,1.64E+05,3.44E+05,1.33E+07 p/s,1.42E+06 p/s,6.76E+07 p/s,
